Measured values taken from PubChem BioAssay (NCI).
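96-well plates; 48 h exposure; 5 concentrations. Endpoints by linear interpolation between flanking doses. Not reached: highest tested concentration assigned. GI50 = concentration required for 50% inhibition of growth. TGI marks complete inhibition of growth.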

How the values were obtained:
Assay in all cases: NCI anticancer screen, dose series, 48 h
HCT-116 colon = test system: HCT-116 colon
KM12 colon = test system: KM12 colon
MDA-MB-435 = test system: MDA-MB-435
NCI-H460 lung = test system: NCI-H460 lung
PC-3 prostate = test system: PC-3 prostate
RPMI-8226 leukemia = test system: RPMI-8226 leukemia
SK-OV-3 ovarian = test system: SK-OV-3 ovarian
SNB-75 CNS = test system: SNB-75 CNS
SW-620 colon = test system: SW-620 colon
U251 CNS = test system: U251 CNS

Row | Structure (SMILES) | GI50 (HCT-116 colon) | TGI (HCT-116 colon) | GI50 (KM12 colon) | TGI (KM12 colon) | GI50 (MDA-MB-435) | TGI (MDA-MB-435) | GI50 (NCI-H460 lung) | TGI (NCI-H460 lung) | GI50 (PC-3 prostate) | TGI (PC-3 prostate) | GI50 (RPMI-8226 leukemia) | TGI (RPMI-8226 leukemia) | GI50 (SK-OV-3 ovarian) | TGI (SK-OV-3 ovarian) | GI50 (SNB-75 CNS) | TGI (SNB-75 CNS) | GI50 (SW-620 colon) | TGI (SW-620 colon) | GI50 (U251 CNS) | TGI (U251 CNS)
1 | Cc1cc(Cl)nc(N(CCCNc2ccnc3cc(Cl)ccc23)Cc2cccs2)n1 | 0.437 µM | 2.64 µM | 2.61 µM | 11 µM | 1.94 µM | 6.09 µM | 1.56 µM | 11 µM | 1.83 µM | 13.7 µM | 0.83 µM | 3.84 µM | 3.27 µM | 12.6 µM | 2.08 µM | 13.6 µM | 1.1 µM | 8.75 µM | 2.18 µM | 10.2 µM
2 | CCCCSc1nc(N)c2cn[nH]c2n1 | 14.1 µM | 34.8 µM | 15 µM | 30.4 µM | 21 µM | 41.8 µM | 19.6 µM | 51.1 µM | 17.9 µM | 41.8 µM | 17.1 µM | 37.9 µM | 37 µM | > 92.3 µM | 26.4 µM | 69 µM | 29.1 µM | > 70 µM | 28.1 µM | > 64.1 µM
3 | CC(C)(C)C(=O)c1c(C(F)(F)F)n([O-])c2cc(Cl)c(Cl)cc2[n+]1=O | 1.58 µM | 2.93 µM | 0.19 µM | 0.45 µM | 0.515 µM | 1.01 µM | 0.279 µM | 0.767 µM | 1.58 µM | 3.03 µM | 0.131 µM | 0.281 µM | 0.815 µM | 2.07 µM | 0.189 µM | 0.408 µM | 0.244 µM | 0.644 µM | 0.492 µM | 0.951 µM
4 | O=c1cc(-c2ccccc2)oc2cc(OCCCCCN3CCOCC3)cc(O)c12 | 19.2 µM | 64.8 µM | > 100 µM | > 100 µM | > 100 µM | > 100 µM | 90.1 µM | > 100 µM | 54.1 µM | > 100 µM | 62.3 µM | > 100 µM | 16.4 µM | 44.1 µM | 3.64 µM | 15.2 µM | > 100 µM | > 100 µM | 18.6 µM | 45.5 µM
5 | OC(CN1CCCC2CCCCC21)c1cc2ccccc2c2ccccc12 (stereo not given) | 1.29 µM | 2.56 µM | 1.87 µM | 4.04 µM | 2.02 µM | 5.06 µM | 1.83 µM | 3.53 µM | 2.27 µM | 10.1 µM | 1.6 µM | 3.87 µM | 3.16 µM | 10.8 µM | 1.9 µM | 6.83 µM | 1.66 µM | 3.36 µM | 1.85 µM | 3.77 µM
6 | Cc1ccnc2c(NC(C)CCCN)cc(O)c(O)c12 (stereo not given) | 13.8 µM | > 100 µM | 31.5 µM | > 100 µM | 22.3 µM | 50.6 µM | 27.4 µM | > 100 µM | 17.1 µM | 53.8 µM | 11 µM | 76.6 µM | 39.3 µM | > 100 µM | 19 µM | 81.1 µM | 19.6 µM | 78.7 µM | 9.43 µM | 22.8 µM
7 | CC(C)c1[nH]nc2c(NCc3ccc(-c4ccccn4)cc3)nc(SCCN(C)C)nc12 | 0.0357 µM | 10.8 µM | < 0.0159 µM | 6.07 µM | < 0.0176 µM | 0.797 µM | 0.112 µM | 11.7 µM | 0.0313 µM | 3.81 µM | 0.0195 µM | 0.101 µM | 0.106 µM | 11.5 µM | 0.0223 µM | 0.138 µM | < 0.0135 µM | 12.1 µM | 0.0474 µM | 10.7 µM
8 | O=C(NCc1ccco1)C1CCN(S(=O)(=O)c2ccc(Cl)cc2)CC1 | 59.8 µM | > 100 µM | > 100 µM | > 100 µM | 35.4 µM | > 100 µM | 47.5 µM | > 100 µM | 73.8 µM | > 100 µM | 94.9 µM | > 100 µM | > 100 µM | > 100 µM | > 100 µM | > 100 µM | > 100 µM | > 100 µM | > 100 µM | > 100 µM
9 | COC(=O)c1ccc(NC(=O)c2ccc(NC3=C(Cl)C(=O)N(Cc4ccccc4)C3=O)cc2)cc1 | 3.47 µM | 11.8 µM | 25.7 µM | > 100 µM | 12.3 µM | 27 µM | 27.3 µM | > 100 µM | 13.7 µM | 26.6 µM | 3.74 µM | 16.3 µM | 20.7 µM | 38.3 µM | 28.8 µM | 64.4 µM | 15.1 µM | 33 µM | 9.63 µM | 21.4 µM
10 | CNCC(=O)NC(CO)C(=O)NC(CO)C(=O)NC1C(C(N)=O)OC(n2ccc(N)nc2=O)C(O)C1O (stereo not given) | 4.68 µg/mL | 40.3 µg/mL | 20.3 µg/mL | > 50 µg/mL | 41.9 µg/mL | > 50 µg/mL | 3.39 µg/mL | 31.3 µg/mL | 10.2 µg/mL | 47.5 µg/mL | > 50 µg/mL | > 50 µg/mL | 7.66 µg/mL | 41.7 µg/mL | 1.27 µg/mL | 8.92 µg/mL | > 50 µg/mL | > 50 µg/mL | 10.9 µg/mL | > 50 µg/mL
11 | CSc1ccc(NC(=O)Nc2cc(C)ccn2)cc1 |  | > 100 µM |  | > 100 µM |  | > 100 µM |  | > 100 µM |  | > 100 µM |  | > 100 µM |  | > 100 µM |  | > 100 µM |  | > 100 µM |  | > 100 µM
12 | O=C(N=Nc1c(Cl)c(O)c2ccccc2c1O)C(=O)Nc1cccc(C(F)(F)F)c1 | 1.83 µM | 3.88 µM | 5.45 µM | 16.6 µM | 1.89 µM | 3.43 µM | 3.3 µM | 12.4 µM | 3 µM | 16.2 µM | 3.49 µM | 15.6 µM | 12.9 µM | 26.7 µM | 3.06 µM | 15.5 µM | 3.24 µM | 15.6 µM | 3.05 µM | 10.9 µM
13 | CC1=NN(c2cccc(Cl)c2)C(=O)/C1=C\C=C\c1ccccc1 | 1.56 µM | 3.09 µM | 1.64 µM | 3.1 µM | 2.5 µM | 7.37 µM | 1.67 µM | 3.28 µM | 2.93 µM | > 100 µM | 2.91 µM | 14.3 µM | 3.21 µM | 9.93 µM | 7.12 µM | > 100 µM | 1.74 µM | 3.44 µM | 1.78 µM | 4.42 µM
14 | CN(C)C(=S)/N=c1\ssc(=S)n1Cc1ccco1 |  | > 72 µM |  | > 100 µM |  | 1.95 µM |  | > 64.8 µM |  | > 100 µM |  | > 100 µM |  | > 100 µM |  | > 23.9 µM |  | > 100 µM |  | > 47.4 µM
